Test results from patent publication US20250108119A1, “NOVEL STEROID PAYLOADS, STEROID LINKERS, ADCs CONTAINING AND USE THEREOF” (IMMUNEXT, INC., priority 2021, published 2025).

Assays:
human PBMC = assay: Cytokine production (IL-1β, IL-6) at 24 hr by human PBMC incubated with 1 ng/mL LPS; type: cell-based; conditions: free steroid payloads, serial dilutions, 1 ng/mL LPS, 24 hr
Protocol: (§1) FIG. 51: INX-SM-3, INX-SM-4, and INX-SM-1 inhibit IL-1β (left) and IL-6 (right) production. Cytokine levels were measured at 24 hr for human PBMCS incubated with 1 ng/mL LPS and serial dilutions (1000-1 nM) of steroid payloads, with the no treatment control plotted on the log-scale x-axis at <1 nM; n=1 donor, standard deviation plotted from technical duplicates.
as §1, with “52: INX-SM-1,” for “51:”, “INX-SM-4” for “INX-SM-4,”, “INX-SM-6” for “INX-SM-1”, “IL-1β” for “IL-1β (left) and IL-6 (right)”, “levels” for “levels were”, “ng/ml” for “ng/mL”
(§2) FIG. 53: INX-SM-9, INX-SM-31 and INX-SM-35 inhibit IL-1β (top) and IL-6 (bottom) production. Cytokine levels measured at 24 hr for human PBMCS incubated with 1 ng/mL LPS and serial dilutions (1000-0.2 nM) of steroid payloads, with the no treatment control plotted on the log-scale x-axis at <0.2 nM; n=2 donors-representative donor shown. Standard deviation plotted from technical duplicates.
as §2, with “54: INX-SM-32 inhibits” for “53: INX-SM-9, INX-SM-31 and INX-SM-35 inhibit”, “(500-1” for “(1000-0.2”, “<1” for “<0.2”, “n=2. Representative” for “n=2 donors-representative”
Cytokine levels measured at 24 hr for human PBMCS incubated with 1 ng/ml LPS and serial dilutions (1000-0.5 nM) of steroid payloads, with the no treatment control plotted on the log-scale x-axis at <0.5 nM; n=1 donor, standard deviation plotted from technical duplicates.
FIG. 56: INX-SM-2 and INX-SM-7 show inhibition in IL-1β. Average Cytokine levels measured at 24 hr for human PBMCS incubated with 1 ng/ml LPS and serial dilutions (1000-0.16 nM) of steroid payloads, with the no treatment control plotted on the log-scale x-axis at <0.16 nM; n=1, standard deviation plotted from technical duplicates. […]
Average cytokine levels measured at 24 hr for human PBMC incubated with 1 ng/ml LPS and serial dilutions (100-0.032 nM) of glucocorticoid payloads; n=1, mean of technical duplicates.
Average cytokine levels measured at 24 hr for human PBMC incubated with 1 ng/mL LPS and serial dilutions (1000-0.32 nM) of glucocorticoid payloads; n=1, mean of technical duplicates.
Cytokine levels measured at 24 hr for human PBMC incubated with 1 ng/mL LPS and serial dilutions (1000-0.5 nM) of steroid payloads, with the no treatment control plotted on the log-scale x-axis at <0.5 nM; n=1 donor, mean of technical duplicates plotted.
Average cytokine levels for A. hull-1β B. huIL-6 measured at 24 hr for human PBMC incubated with 1 ng/mL LPS and serial dilutions (1000-0.16 nM) of conjugated steroid linker payloads, with the no treatment control plotted on the log-scale x-axis at <0.16 nM; n=1, standard deviation plotted from technical duplicates. Values above the ULOQ (12,500 pg/mL for IL-1b and 150,000 pg/mL for IL-6) were plotted as the extrapolated value.
Average cytokine levels for IL-1β measured at 24 hr for human PBMC incubated with 1 ng/mL LPS and serial dilutions (1000-0.16 nM) of conjugated steroid linker payloads, with the no treatment control plotted on the log-scale x-axis at <0.16 nM; n=1, mean plotted of technical duplicates
Average cytokine levels for IL-1β measured at 24 hr for human PBMC incubated with 1 ng/mL LPS and serial dilutions (1000-0.16 nM) of conjugated steroid linker payloads, with the no treatment control plotted on the log-scale x-axis at <0.16 nM; n=1, mean plotted of technical duplicates.
FIG. 66: Analogs of INX V are potent relative to INX231J. […]

[1] = test system: LPS stimulated human PBMCs; assay: LPS stimulated human PBMC, IL-1β and IL-6 ELISA; type: cell-based; conditions: for inhibition of huIL1-β: Experiment 7: free payload, INX-SM-43 100-0.032 nM, INX-SM-44 1000-0.32 nM
How it was run: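 Human PBMC (1-2 healthy donors), 150,000 cells/well, treated with test agents at 1,000 nM down to 1 nM or 0.2 nM, in duplicate. LPS at 1 ng/ml added immediately after free payload or 4 h after conjugates; IL-1β and IL-6 in supernatants measured by ELISA.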

Structure (SMILES) | inhibition of IL-1β production (human PBMC) | inhibition of IL-6 production (human PBMC) | inhibition of IL-1β production ([1]; Experiment 3: free payload 1000-0.2 nM, 24 hr, n=2 donors) | potency of free payloads (conclusions) [1] | inhibition of IL-1β ([1]; Experiment 11: free payloads 1000-0.15 nM) | inhibition of IL-1β and IL-6 ([1]; Experiment 12: free payloads 1000-0.15 nM) | inhibition of huIL1-β [1]
C[C@]12C=CC(=O)C=C1CC[C@@H]1[C@@H]2[C@@H](O)C[C@@]2(C)[C@H]1C[C@H]1O[C@@H](c3ccc(CC4(N)CC(F)(F)C4)cc3)O[C@]12C(=O)CO [INX-SM-35, (6aR,6bS,7S,8aS,8bS,10R,11aR,12aS,12bS)-10-(4-((1-amino-3,3-difluorocyclobutyl)methyl)phenyl)-7-hydroxy-8b-(2-hydroxyacetyl)-6a,8a-dimethyl 1,2,6a,6b,7,8,8a,8b,11a,12,12a,12b-dodecahydro-4H-naphtho[2′,1′:4,5]indeno[1,2-d][1,3]dioxol-4-one] | inhibit | inhibit | dose dependent inhibition in IL-1β production | – | – | – | –
C[C@]12C=CC(=O)C=C1CC[C@@H]1[C@@H]2[C@@H](O)C[C@@]2(C)[C@H]1C[C@H]1CN(c3ccc(CC4CC5(CC(N)C5)C4)cc3)C[C@]12C(=O)CO (stereo partly drawn) [INX-SM-37, (6aR,6bS,7S,8aS,8bS,11aR,12aS,12bS)-10-(4-((6-aminospiro[3.3]heptan-2-yl)methyl)phenyl)-7-hydroxy-8b-(2-hydroxyacetyl)-6a,8a-dimethyl-1,6a,6b,7,8,8a,8b,9,10,11,11a,12,12a,12b-tetradecahydronaphtho[2′,1′:4,5]indeno[1,2-c]pyrrol-4 (2H)-one] | weakly inhibits | – | – | lowest potency among the R stereoisomers of the series | weakly inhibits IL-1β | – | –
C[C@]12C=CC(=O)C=C1CC[C@@H]1[C@@H]2[C@@H](O)C[C@@]2(C)[C@H]1C[C@H]1CN(c3ccc(Cc4cccc(N)c4)cc3)C[C@]12C(=O)CO [INX-SM-40, (6aR,6bS,7S,8aS,8bS,11aR,12aS,12bS)-10-(4-(3-aminobenzyl)phenyl)-7-hydroxy-8b-(2-hydroxyacetyl)-6a,8a-dimethyl-1,6a,6b,7,8,8a,8b,9,10,11,11a,12,12a,12b-tetradecahydronaphtho[2′,1′:4,5]indeno[1,2-c]pyrrol-4 (2H)-one] | weakly inhibit | weakly inhibit | – | – | – | weakly inhibit IL-1β and IL-6 | –
C[C@]12C=CC(=O)C=C1CC[C@@H]1[C@@H]2[C@@H](O)C[C@@]2(C)[C@H]1C[C@H]1O[C@@H](c3ccc(OC4CC5(CC(N)C5)C4)cc3)O[C@]12C(=O)CO (stereo partly drawn) [INX-SM-43, (6aR,6bS,7S,8aS,8bS,10R,11aR,12aS,12bS)-10-(4-((6-aminospiro[3.3]heptan-2-yl)oxy)phenyl)-7-hydroxy-8b-(2-hydroxyacetyl)-6a,8a-dimethyl-1,2,6a,6b,7,8,8a,8b,11a,12, 12a,12b-dodecahydro-4H-naphtho[2′,1′:4,5]indeno[1,2-d][1,3]dioxol-4-one] | moderate inhibition | – | – | – | – | – | moderate inhibition of huIL1-β
C[C@]12C=CC(=O)C=C1CC[C@@H]1[C@@H]2[C@@H](O)C[C@@]2(C)[C@H]1C[C@H]1O[C@@H](c3ccc(OC4CC5(CC(N)C5)C4)cc3F)O[C@]12C(=O)CO (stereo partly drawn) [INX-SM-44, (6aR,6bS,7S,8aS,8bS,10R,11aR,12aS,12bS)-10-(4-((6-aminospiro[3.3]heptan-2-yl)oxy)-2-fluorophenyl)-7-hydroxy-8b-(2-hydroxyacetyl)-6a,8a-dimethyl-1,2,6a,6b,7,8,8a,8b,11a,12,12a,12b-dodecahydro-4H-naphtho[2′,1′:4,5]indeno[1,2-d][1,3]dioxol-4-one] | moderate inhibition | – | – | – | – | – | moderate inhibition of huIL1-β
